This assay deals with L1210. Kind of assay: Cytotoxicity against mouse L1210 cells after 48 hrs by WST-1 assay. Conditions: L1210, 48 h, read-out: ED50 (the source's name). The class given is functional. A general note: Tetrazolium assays rely on reduction of a dye to a coloured formazan, in cell work by metabolically active cells.

Values after ≈ are worked out from the molar mass of the structure shown. A value given as a limit tells only on which side of the number the result lay.

Take `C=CCCCCC/C=C\C(O)C#CC#C/C=C/C` (stereo not drawn): the EC50 came to 10.4 µg/mL (≈ 42.9 µM).
For `C=CCCCCC/C=C\C(O)C#CC#CC(O)C=C` (stereo not drawn), the EC50 is 0.12 µg/mL (≈ 0.464 µM).
`C/C=C/C#CC#C[C@H](O)CCO` [GYMNASTERKOREAYNE A]: the EC50 is > 10 µg/mL.
In the case of `C=CCCCCC/C=C\[C@H](O)C#CC#CC1OC1C` (stereo partly drawn) [GYMNASTERKOREAYNE B] it was 3.3 µg/mL (≈ 12.8 µM); in that of `C=CCCCCC/C=C\[C@H](O)C#CC#C[C@H](C=C)OC(C)=O` [GYMNASTERKOREAYNE C], 2.1 µg/mL (≈ 6.99 µM); in that of `C=CCCCCC/C=C\[C@H](O)C#CC#C/C=C/COC(C)=O` [GYMNASTERKOREAYNE D], 7.7 µg/mL (≈ 25.6 µM).
`C=CCCCCC/C=C/[C@H](O)C#CC#C[C@@H](O)[C@H](C)O` [GYMNASTERKOREAYNE E]: the EC50 is 9.6 µg/mL (≈ 34.7 µM).
Regarding `C=CCCCCC/C=C\[C@H](O)C#CC#C/C=C/CO` [GYMNASTERKOREAYNE F], the EC50 came to 3.1 µg/mL (≈ 12 µM).

The values above are taken from ChEMBL document CHEMBL1150596, “Gymnasterkoreaynes A-F, cytotoxic polyacetylenes from Gymnaster koraiensis” (2002).
